In patent publication US7901901B2, “Assays for measuring phosphate modification enzyme activity” (Roche Palo Alto LLC, priority 2006, dated 2011):

Experiment: Phosphodiesterase assay using fluorescence polarization with various metallic ion salts
Type: binding
Details: FIG. 1B, 50 nM TAMRA-cGMP with PDE, 10 mM metal salt in 100 mM NaAc/HAc buffer pH 5.2 with 10 mM ZnSO4
Experimental: After one hour of incubation, the fluorescence polarization was measured using Analyst reader (Molecular Devices).

SMILES | fluorescence signal, indicative of binding to the PDE product
[Cl][Ga]([Cl])[Cl] [GaCl3] | able to show fluorescence signal
[Cl-].[Cl-].[Cl-].[In+3] [InCl3, indium chloride] | able to show fluorescence signal
